Laboratory results reported in patent US12324927B2, “Methods and systems for photodynamic therapy calculations” (THE TRUSTEES OF THE UNIVERSITY OF PENNSYLVANIA, priority 2018, dated 2025).
Several values for one entry are separate records, joined by “and”; a condition that tells them apart may be missing. Equal values may be shown once.

Tested on: radiation-induced fibrosarcoma (RIF) tumors
Assay: Photofrin-mediated PDT of RIF tumors: explicit dosimetry and tumor regrowth (cure index)
Type: in vivo, mice
Conditions: for Photofrin post: in tumor after PDT; for Photofrin post / Photofrin pre / [ROS]rx, mea / [ROS]rxcal / CI (cure index, 1−k/kctr): per mouse; for Photofrin pre: in tumor before PDT, 5 mg/kg i.v., 24 h, 5 mg/kg; for [ROS]rx, mea / [ROS]rxcal: 3 mm; for [ROS]rx, mea: measured [^3O2](t); for [ROS]rxcal: model-calculated [^3O2]; for CI (cure index, 1−k/kctr): tumor growth up to 14 days
Experimental: Radiation-induced fibrosarcomas (RIF) cells were cultured and injected in the right shoulder regions of 6-8 weeks old female C3H mice (NCI-Frederick, Frederick, MD). 30 μl were injected at a concentration of 1×10^7 cells/ml, as described previously.^8-11 Animals were under the care of the University of Pennsylvania Laboratory Animal Resources. All studies were approved by the University of Pennsylvania Institutional Animal Care and Use Committee. The fur of the treatment region was clipped prior to cell inoculation, and the treatment area was depilated with Nair (Church & Dwight Co., Inc., Ewing, NJ) at least 24 hours prior to measurements and treatment. Tumors were treated when they were 3˜5 mm in diameter. Mice were given a chlorophyll-free (alfalfa-free) rodent diet (Harlan laboratories Inc., Indianapolis, IN) at least 10 days prior to treatment to eliminate the fluorescence signal from chlorophyll-breakdown products, which have a similar range to the photosensitizer spectra obtained in this study. The photosensitizer fluorescence was used to determine the in vivo concentrations in this study, using methods described previously.^7-9
Treatment delivery was done using an optical fiber with a microlens attachment coupled to a diode laser with the appropriate wavelength for each photosensitizer. A 630 nm laser (Biolitec, Inc., East Longmeadow, MA, USA) was used for Photofrin after a 18˜24 hours drug-light interval. The in-air fluence rate (ϕair) is defined as the calculated irradiance determined by the laser power divided by the treatment area (1 cm diameter spot size). The in-air fluence was calculated by multiplying the in-air fluence rate by the treatment time. RIF tumor-bearing mice with no photosensitizer and no light excitation were used as controls (n=5).
Photofrin (Pinnacle Biologics, Chicago, Illinois) at a dosage of 5 mg/kg was injected through the mouse tail vein as described previously.^12,13 At a 24-h drug-light interval, superficial irradiation of the tumor was performed with a 630-nm laser (Biolitec AG., A-1030, Vienna). A microlens fiber was coupled to the laser to irradiate the tumor uniformly. Animals were assigned to four light dose groups, and each group was comprised of 2 to 3 subgroups with different ϕ. There were a total of 5 treatment groups: 50 J/cm^2 at 150 mW/cm^2, 250 J/cm^2 at 75 mW/cm^2, 135 J/cm^2 at 75 mW/cm^2, 75 J/cm^2 at 75 mW/cm^2, and 100 J/cm^2 at 150 mW/cm^2. Tumor-bearing mice that received neither light irradiation nor Photofrin were used as controls.
Following the drug-light interval of 18˜24 hours, measurements of light fluence rate, photosensitizer concentration and [O2] were performed. Photofrin fluorescence spectra was obtained using a custom-made multi-fiber contact probe before and after PDT.^14 The probe is connected to a 405 nm laser (Power Technology Inc., Little Rock, AR, USA) for the fluorescence excitation of Photofrin and a multichannel CCD spectrograph (InSpectrum, Princeton Instruments, Trenton, NJ, USA) for the collection of the spectra. The in vivo photosensitizer concentration was obtained by comparing the in vivo Photofrin spectra with those of phantoms with known photosensitizer concentrations. The attenuation of the fluorescence signal due to the light absorption and scattering by tissues was corrected by applying an empirical correction factor described elsewhere. The accuracy of in vivo measurements was validated by ex vivo measurements in separate mice.^15.16
The in vivo tissue oxygen partial pressure pO2 was measured during PDT treatment using a phosphorescence-based ^3O2 probe (OxyLite Pro, Oxford Optronix, Oxford, United Kingdom). A bare-fiber-type probe (NX-BF/O/E, Oxford Optronix, Oxford, United Kingdom) was placed inside the tumor at a 3 mm depth from the treatment surface. […]

Substance: Photofrin
- Photofrin post (75.00 mW/cm2 for 1500.00 s): 2.80 µM and 3.70 µM and 3.01 µM
- Photofrin post (75.00 mW/cm2 for 1800.00 s): 4.90 µM and 3.35 µM and 3.00 µM and 3.50 µM
- Photofrin post (75.00 mW/cm2 for 3333.00 s): 3.02 µM and 2.44 µM and 2.48 µM and 2.20 µM
- Photofrin post (150.00 mW/cm2 for 333.00 s): 3.07 µM and 1.19 µM and 2.80 µM and 2.30 µM
- Photofrin post (150.00 mW/cm2 for 666.00 s): 2.50 µM and 3.54 µM and 4.88 µM and 3.49 µM
- Photofrin pre (75.00 mW/cm2 for 1500.00 s): 6.50 µM and 6.70 µM and 6.00 µM
- Photofrin pre (75.00 mW/cm2 for 1800.00 s): 6.90 µM and 6.80 µM and 5.20 µM and 5.67 µM
- Photofrin pre (75.00 mW/cm2 for 3333.00 s): 6.47 µM and 4.20 µM and 4.54 µM and 4.50 µM
- Photofrin pre (150.00 mW/cm2 for 333.00 s): 6.80 µM and 3.07 µM and 5.84 µM and 5.10 µM
- Photofrin pre (150.00 mW/cm2 for 666.00 s): 6.40 µM and 7.20 µM and 7.84 µM and 6.79 µM
- [ROS]rx, mea (75.00 mW/cm2 for 1500.00 s): 0.82 mM and 0.73 mM and 0.65 mM
- [ROS]rx, mea (75.00 mW/cm2 for 1800.00 s): 1.13 mM and 0.96 mM and 1.00 mM and 1.10 mM
- [ROS]rx, mea (75.00 mW/cm2 for 3333.00 s): 1.40 mM and 1.41 mM and 1.39 mM and 1.20 mM
- [ROS]rx, mea (150.00 mW/cm2 for 333.00 s): 0.27 mM (2×) and 0.21 mM and 0.38 mM
- [ROS]rx, mea (150.00 mW/cm2 for 666.00 s): 0.77 mM and 0.79 mM and 0.88 mM and 0.78 mM
- [ROS]rxcal (75.00 mW/cm2 for 1500.00 s): 0.89 mM and 0.93 mM and 0.87 mM
- [ROS]rxcal (75.00 mW/cm2 for 1800.00 s): 1.39 mM and 1.24 mM and 1.07 mM and 1.09 mM
- [ROS]rxcal (75.00 mW/cm2 for 3333.00 s): 2.33 mM and 1.73 mM and 1.89 mM and 1.87 mM
- [ROS]rxcal (150.00 mW/cm2 for 333.00 s): 0.29 mM and 0.235 mM and 0.39 mM and 0.32 mM
- [ROS]rxcal (150.00 mW/cm2 for 666.00 s): 0.69 mM and 0.81 mM (2×) and 0.8 mM
- CI (cure index, 1−k/kctr) (75.00 mW/cm2 for 1500.00 s): 0.20 and 0.22 and 0.13
- CI (cure index, 1−k/kctr) (75.00 mW/cm2 for 1800.00 s): 1.00 and 0.56 and 0.64 and 0.82
- CI (cure index, 1−k/kctr) (75.00 mW/cm2 for 3333.00 s): 1.00
- CI (cure index, 1−k/kctr) (150.00 mW/cm2 for 333.00 s): 0.03 and 0.00 and 0.01 and 0.06
- CI (cure index, 1−k/kctr) (150.00 mW/cm2 for 666.00 s): 0.15 and 0.25 and 0.42 and 0.27
- PDT dose threshold (this study): 439 mM J/cm^2
